Tests used:
[1] = Oral bioavailability in Sprague-Dawley rat at 5 mg/kg; format: ADME, organism-based; settings: in vivo
Dipeptidyl peptidase 8 = Dipeptidyl peptidase 8 (Homo sapiens, UniProt Q6V1X1); assay: Inhibition of human recombinant DPP-8 expressed in Sf9 cells using H-Gly-Pro-AMC as substrate preincubated for 30 mins before substrate addition measured after 20 mins by fluorescence assay
Dipeptidyl peptidase 2 = Dipeptidyl peptidase 2 (Homo sapiens, UniProt Q9UHL4); assay: Inhibition of DPP-2 expressed in human Caco-2 cells using H-Lys-Ala-AMC as substrate preincubated for 30 mins before substrate addition measured after 20 mins by fluorescence assay; format: cell-based

Sequence of Dipeptidyl peptidase 8 (Q6V1X1 whole entry): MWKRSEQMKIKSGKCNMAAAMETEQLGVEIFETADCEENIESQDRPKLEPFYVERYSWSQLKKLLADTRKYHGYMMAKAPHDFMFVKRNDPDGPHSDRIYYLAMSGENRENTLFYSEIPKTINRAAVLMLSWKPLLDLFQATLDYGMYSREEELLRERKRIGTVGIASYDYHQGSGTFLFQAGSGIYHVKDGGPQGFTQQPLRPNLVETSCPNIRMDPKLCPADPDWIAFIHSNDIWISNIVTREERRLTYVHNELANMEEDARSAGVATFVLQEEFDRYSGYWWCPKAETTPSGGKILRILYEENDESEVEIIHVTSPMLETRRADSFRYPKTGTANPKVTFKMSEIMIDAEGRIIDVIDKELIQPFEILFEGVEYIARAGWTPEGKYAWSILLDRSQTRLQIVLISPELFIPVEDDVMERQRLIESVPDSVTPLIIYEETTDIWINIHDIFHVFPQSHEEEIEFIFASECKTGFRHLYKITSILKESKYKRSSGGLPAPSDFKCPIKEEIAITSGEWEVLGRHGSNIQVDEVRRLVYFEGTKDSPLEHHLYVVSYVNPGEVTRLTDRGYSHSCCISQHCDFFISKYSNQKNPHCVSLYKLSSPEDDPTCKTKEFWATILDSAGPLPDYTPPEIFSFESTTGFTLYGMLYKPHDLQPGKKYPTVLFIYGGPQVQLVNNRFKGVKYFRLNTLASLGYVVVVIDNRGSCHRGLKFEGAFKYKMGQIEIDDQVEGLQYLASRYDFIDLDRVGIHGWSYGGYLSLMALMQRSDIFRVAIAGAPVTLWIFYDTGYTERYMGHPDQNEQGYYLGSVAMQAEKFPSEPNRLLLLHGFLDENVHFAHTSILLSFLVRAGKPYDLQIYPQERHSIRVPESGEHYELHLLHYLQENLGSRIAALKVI

| IC50 (Dipeptidyl peptidase 8) [µM] | SMILES | further results |
| --- | --- | --- |
|  | Cc1cc2ncc(C(=O)NCC(C)(C)NCC(=O)N3CCC[C@H]3C#N)c(O)n2n1.Cl | bioavailability [1]: 4.1% |
| > 100 | Cc1cc2ncc(C(=O)NCC(C)(C)NCC(=O)N3CCC[C@H]3C#N)c(C(F)(F)F)n2n1 |  |
|  | Cc1cc2ncc(C(=O)NCC(C)(C)NCC(=O)N3CCC[C@H]3C#N)cn2n1 [ANAGLIPTIN] | IC50 (Dipeptidyl peptidase 2): 177 µM |
| > 100 | Cc1nc2cc(C(C)(C)C)nn2c(C)c1C(=O)NCC(C)(C)NCC(=O)N1CCC[C@H]1C#N |  |

— ChEMBL document CHEMBL1926646 (Bioorg Med Chem, 2011)
